The term IC50 denotes the concentration that inhibits the measured activity by half.

A short description of this assay: Inhibition of SMARCA2/SMARCC1/SMARCC2/SMARCB1 (unknown origin) using ATP/nucleosome mix as substrate preincubated for 30 mins followed by substrate addition and measured after 180 mins by ADP-Glo assay. Further details: species or system Homo sapiens. (In general: ADP-Glo turns the ADP formed in a reaction into a luminescent signal.)
As for `Cc1ccc(NC(=O)Cc2cc3cc(-c4cccc(N5C[C@@H](C)O[C@@H](C)C5)n4)ccc3cn2)cc1S(C)(=O)=O`, the IC50 was 0.48 nM.
On to `C[C@@H]1CN(c2cccc(-c3ccc4cnc(CC(=O)Nc5cccc(S(=O)(=O)C(F)F)c5)cc4n3)n2)C[C@H](C)O1`, for which 0.45 nM corresponded to half-maximal inhibition (IC50). The IC50 values of the last two molecules are within 1.5-fold of each other.
Then `C[C@@H]1CN(c2cccc(-c3ccc4cnc(CC(=O)N[C@@H]5C[C@H](C)N(S(=O)(=O)C(F)F)C5)cc4c3)n2)C[C@H](C)O1`, with 0.33 nM; and `C[C@@H]1CN(c2cccc(-c3ccc4cnc(CC(=O)N[C@@H]5CN(S(=O)(=O)C(F)F)CC(F)(F)C5)cc4n3)n2)C[C@H](C)O1`, with 0.43 nM.
On to `C[C@@H]1CN(c2cccc(-c3ccc4cnc(CC(=O)N[C@@H]5CCN(S(=O)(=O)C(F)F)C5)cc4c3)n2)C[C@H](C)O1`, for which inhibition was half-maximal at 0.53 nM (IC50).
Then `C[C@@H]1CN(c2cccc(-c3ccc4cnc(CC(=O)N[C@@H]5C[C@@H](F)CN(S(=O)(=O)C(F)F)C5)cc4n3)n2)C[C@H](C)O1`, with 0.5 nM.

For the origin of these results see ChEMBL document CHEMBL6103673, “Novel 1,6-Naphthridine Compounds as SMARCA2 Inhibitors for Treating Non-small Cell Lung Cancer” (ACS Med Chem Lett, 2025).
